The target in test [1] is T1, serotonin 1A receptor (Rattus norvegicus, UniProt P19327).
T1 construct: To the receptor fraction of the hippocampus were added a test compound and 0.5 nM of [^3H]; 8-hydroxy-dipropylaminotetralin; from tissue; host or cells: rat hippocampus membrane fraction
T1 sequence (P19327 1-422): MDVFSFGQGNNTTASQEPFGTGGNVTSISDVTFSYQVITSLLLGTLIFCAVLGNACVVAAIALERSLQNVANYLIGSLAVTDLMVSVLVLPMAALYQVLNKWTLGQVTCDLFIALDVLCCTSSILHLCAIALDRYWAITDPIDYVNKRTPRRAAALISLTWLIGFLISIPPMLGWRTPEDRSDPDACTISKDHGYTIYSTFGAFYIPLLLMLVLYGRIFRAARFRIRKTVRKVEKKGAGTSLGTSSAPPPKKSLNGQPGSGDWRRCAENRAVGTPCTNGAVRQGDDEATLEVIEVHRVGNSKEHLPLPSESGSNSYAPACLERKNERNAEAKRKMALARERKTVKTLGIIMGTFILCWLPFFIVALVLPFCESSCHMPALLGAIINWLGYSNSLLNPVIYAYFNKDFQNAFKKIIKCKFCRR
Nature of the test: Binding test on [3H] 8-hydroxy-dipropylaminotetralin, hippocampus receptor fraction. Details: species or system SD rats. The note with it: rat hippocampus receptor fraction, 0.5 nM [3H] 8-OH-DPAT, room temperature 30 min; read-out: 5HT1.

Test [2] has as its target T2, serotonin 2 receptor (Rattus norvegicus, UniProt P14842).
T2 construct: To the receptor fraction of the cerebral cortex were added a test compound and 0.3 nM of [^3H] ketanserin; from tissue; host or cells: rat cerebral cortex membrane fraction
Nature of the test: Binding test on [3H] ketanserin, cerebral cortex receptor fraction. Also on record: species or system SD rats. The note with it: 0.3 nM [3H] ketanserin, 37° C. 15 min, read-out: 5HT2.
Method: Methysergide maleate was dissolved in distilled water before using.
Use was made of SD rats aged 6 to 8 weeks.
The rats were sacrificed by dcapitation to extirpate the cerebra.
Each mixture was homogenized by using a Teflon glass homogenizer and centrifuged as 1,000× g for 10 min. The supernatant thus obtained was further centrifuged at 20,000× g for 20 min. […] After centrifuging at 20,000× g for 20 min, the obtained precipitate was further suspended and centrifuged twice each in the same manner. […] This receptor fraction was stored at −80° C. until using.
To the receptor fraction of the cerebral cortex were added a test compound and 0.3 nM of [^3H] ketanserin and the resultant mixture was incubated at 37° C. for 15 min. Next, it was filtered through a glass filter with the use of a cell harvester. After washing the glass filter with 50 mM Tris hydrochloride (pH 7.4), the radioactivity of the receptor was measured with a liquid scintillation counter. The binding detected in the presence of 1 μM of methysergide was referred to as the nonspecific binding.
IC50 was calculated by the probit method, while Ki was determined in accordance with the following formula: Ki=IC50(1+c/Kd) wherein c represents the concentration of the radioisotope-labeled compound, and Kd represents the dissociation constant of the radioisotope-labeled compound with respect to the receptor determined by Scatchard's analysis.

Each structure is given as a SMILES string. Structures can show the parent of a compound that is named as a salt.

T2 sequence (P14842 whole entry): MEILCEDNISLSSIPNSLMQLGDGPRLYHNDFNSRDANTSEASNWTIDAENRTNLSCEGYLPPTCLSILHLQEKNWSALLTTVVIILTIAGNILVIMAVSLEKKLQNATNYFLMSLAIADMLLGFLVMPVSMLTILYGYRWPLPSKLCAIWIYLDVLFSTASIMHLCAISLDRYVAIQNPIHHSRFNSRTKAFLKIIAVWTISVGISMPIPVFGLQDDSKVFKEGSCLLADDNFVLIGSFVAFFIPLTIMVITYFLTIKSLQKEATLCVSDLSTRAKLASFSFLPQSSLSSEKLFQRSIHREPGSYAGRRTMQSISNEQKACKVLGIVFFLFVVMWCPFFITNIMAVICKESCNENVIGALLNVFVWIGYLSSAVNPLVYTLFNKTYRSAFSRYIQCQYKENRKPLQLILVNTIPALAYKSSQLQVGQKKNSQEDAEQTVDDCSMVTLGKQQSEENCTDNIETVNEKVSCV

On to `CCN1CCN(c2nc(/C=C/c3ccc(OCCO)cc3)cc3ccoc23)CC1` [Example 307], for which the Ki in test [1] is 7.7 nM; in test [2], 11.5 nM.

On to `CCN1CCN(c2nc(/C=C/c3ccccc3OCCO)cc3ccoc23)CC1` [Example 308, oxalate], for which the Ki in test [1] is 6.49 nM; in test [2], 19.5 nM.

As for `CCN1CCN(c2nc(-c3ccc(OCC(C)(C)O)cc3)cc3ccccc23)CC1` [Example 309, 1-(1-ethylpiperazin-4-yl)-3-[4-(2-hydroxy-2-methylpropoxy)phenyl]isoquinoline dihydrochloride], the Ki in test [1] came to 91 nM; in test [2] it was 0.01 nM.

With `CCN1CCN(c2nc(C#CC(O)c3ccccc3)cc3ccccc23)CC1` (stereo not shown) [Example 310, 1-(1-ethylpiperazin-4-yl)-3-(3-phenyl-3-hydroxy-1-propynyl)isoquinoline hydrochloride], the Ki in test [1] is 4.4 nM; in test [2] it was 10.2 nM.

On to `CCN1CCN(c2nc(-c3ccc(OCCCO)cc3)cc3ccoc23)CC1` [Example 317, 7-(1-ethylpiperazin-4-yl)-5-[4-(3-hydroxypropoxy)phenyl]furo[2,3-c]pyridine dihydrochloride], for which the values for the Ki in test [1] and in test [2] were 12.2 nM and 105 nM, respectively.

As to `CCN1CCN(c2nc(-c3cccc(OCCO)c3)cc3ccccc23)CC1` [Example 329, 1-(4-Ethylpiperazin-1-yl)-3-[3-(2-hydroxyethoxy)phenyl]isoquinoline dihydrochloride], the Ki in test [1] stood at 31.6 nM; in test [2], 73.6 nM.

With `CCN1CCN(c2nc(-c3ccc4c(c3)OCCO4)cc3ccccc23)CC1` [Example 332, 1-(4-ethylpiperazin-1-yl)-3-(3,4-ethylenedioxyphenyl)isoquinoline dihydrochloride], the Ki in test [1] was determined as 13.9 nM; in test [2] it was 12.1 nM.

For the compound `CCN1CCN(c2nc(-c3ccc(CCCOC)cc3)cc3ccccc23)CC1` [Example 333, 1-(4-ethylpiperazin-1-yl)-3-[4-(3-(methoxypropyl)phenyl]isoquinolinedihydrochloride], the values for the Ki in test [1] and in test [2] were 17.1 nM and 6.1 nM, respectively.

Consider `CCN1CCN(c2nc(-c3cc(OC)ccn3)cc3ccccc23)CC1` [Example 335, 1-(4-ethylpiperazin-1-yl)-3-(4-methoxypyridin-2-yl)isoquinoline dihydrochloride], for which the Ki came out at 60.1 nM in test [1] and 20.3 nM in test [2].

Regarding `CCN1CCN(c2nc(-c3ccc(OCC4OCCO4)cc3)cc3ccccc23)CC1` [Example 336, 1-(4-ethylpiperazin-1-yl)-3-[4-(1,3-dioxolan-2-ylmethyloxy)phenyl]isoquinoline], the values for the Ki in test [1] and in test [2] were 45.7 nM and 2.6 nM, respectively.

Take `CCN1CCN(c2nc(-c3ccc(OCC(O)CO)cc3)cc3ccccc23)CC1` (stereo not shown) [Example 337, 1-(4-ethylpiperazin-1-yl)-3-[4-(2,3-dihydroxypropoxy)phenyl]isoquinoline dihydrochloride]: the results for the Ki in test [1] and in test [2] were 25.7 nM and 5.6 nM, respectively.

As to `CCN1CCN(c2nc(-c3ccc(OCC(N)=O)cc3)cc3ccccc23)CC1` [Example 338, 1-(4-ethylpiperazin-1-yl)-3-(4-carbamoylmethoxyphenyl)isoquinoline dihydrochloride], the Ki was 14.1 nM in test [1] and 61.9 nM in test [2].

As to `CCN1CCN(c2nc(-c3ccc(OC(F)(F)F)cc3)cc3ccccc23)CC1` [Example 339, 1-(4-ethylpiperazin-1-yl)-3-(4-trifluoromethoxyphenyl)isoquinoline dihydrochloride], the Ki in test [1] is 214 nM; in test [2], 18.9 nM.

`CCN1CCN(c2nc(-c3ccc(OCCO)c(OC)c3)cc3ccccc23)CC1` [Example 340, 1-(4-ethylpiperazin-1-yl)-3-[4-(2-hydroxyethoxy)-3-methoxyphenyl]isoquinoline dihydrochloride]: the Ki is 26 nM in test [1] and 20.7 nM in test [2].

On to `CCN1CCN(c2nc(-c3ccc(S(C)(=O)=O)cc3)cc3ccccc23)CC1` [Example 342, 1-(4-ethylpiperazin-1-yl)-3-(4-methylsulfonylphenyl)isoquinoline dihydrochloride], for which the Ki was determined as 6.2 nM in test [1] and 14.9 nM in test [2].

Regarding `CCN1CCN(c2nc(-c3ccc(OCC(O)COC)cc3)cc3ccccc23)CC1` (stereo not shown) [Example 343, 1-(4-ethylpiperazin-1-yl)-3-[4-(2-hydroxy-3-methoxypropoxy)phenyl]isoquinoline dihydrochloride], the Ki in test [1] turned out to be 35.7 nM; in test [2] it was 5.7 nM.

`CCN1CCN(c2nc(-c3ccc(OC)nc3)cc3ccccc23)CC1` [Example 344, 1-(4-ethylpiperazin-1-yl)-3-(2-methoxypyridin-5-yl)isoquinoline]: the values for the Ki in test [1] and in test [2] were 10.7 nM and 35.9 nM, respectively.

For the compound `CCN1CCN(c2nc(-c3ccc(C(C)(C)O)cc3)cc3ccccc23)CC1` [Example 345, 1-(4-ethylpiperazin-1-yl)-[4-(1-hydroxy-1-methylethyl)phenyl]isoquinoline], the Ki in test [1] was 11.3 nM; in test [2], 1.4 nM.

As for `CCN1CCN(c2nc(-c3ccc(C(=O)NCCO)cc3)cc3ccccc23)CC1` [Example 346, 1-(4-ethylpiperazin-1-yl)-3-{4-(N-(2-hydroxyethyl)carbamoyl]phenyl}isoquinoline dihydrochloride], the Ki turned out to be 31.8 nM in test [1] and 41.7 nM in test [2].

`CCN1CCN(c2nc(-c3ccc(S(=O)(=O)NCCO)cc3)cc3ccccc23)CC1` [Example 347, 1-(4-ethylpiperazin-1-yl)-3-{4-[N-(2-hydroxyethyl)sulfamoyl]phenyl}isoquinoline dihydrochloride]: the Ki worked out at 8 nM in test [1] and 24.2 nM in test [2].

As to `CCN1CCN(c2nc(-c3ccc(C(C)O)cc3)cc3ccccc23)CC1` (stereo not shown) [Example 348, 1-(4-ethylpiperazin-1-yl)-3-[4-(1-hydroxyethyl)phenyl]isoquinoline dihydrochloride], the Ki in test [1] stood at 11 nM; in test [2], 1.6 nM.

Regarding `CCCS(=O)(=O)c1ccc(-c2cc3ccccc3c(N3CCN(CC)CC3)n2)cc1` [Example 349, 1-(4-ethylpiperazin-1-yl)-3-[4-propylsulfonyl)phenyl]isoquinoline dihydrochloride], the figures for the Ki in test [1] and in test [2] were 3.2 nM and 5 nM, respectively.

Regarding `CCN1CCN(c2nc(-c3ccc(S(=O)(=O)CCCOC)cc3)cc3ccccc23)CC1` [Example 350, 1-(4-ethylpiperazin-1-yl)-3-{4-[(3-methoxypropyl)sulfonyl]phenyl}isoquinoline], the Ki was determined as 2.6 nM in test [1] and 16.7 nM in test [2].

For `CCN1CCN(c2nc(-c3ccc(CCO)cc3)cc3ccccc23)CC1` [Example 351, 1-(4-ethylpiperazin-1-yl)-3-[4-(2-hydroxyethyl)phenyl]isoquinoline dihydrochloride], the figures for the Ki in test [1] and in test [2] were 15.7 nM and 6.4 nM, respectively.

For `CCN1CCN(c2nc(-c3ccc(S(=O)(=O)CCCO)cc3)cc3ccccc23)CC1` [Example 352, 1-(4-ethylpiperazin-1-yl)-3-[4-(3-hydroxypropyl)sulfonylphenyl]isoquinoline dihydrochloride], the Ki was 4 nM in test [1] and 54.6 nM in test [2].

Take `CCCNS(=O)(=O)c1ccc(-c2cc3ccccc3c(N3CCN(CC)CC3)n2)cc1` [Example 353, 1-(4-ethylpiperazin-1-yl)-3-[4-(N-propylsulfamoyl)phenyl]isoquinoline dihydrochloride]: the Ki in test [1] turned out to be 1.1 nM; in test [2], 0.24 nM.

These data come from patent US6875761B2 (Eisai Co., Ltd., priority 1997, dated 2005).
